From paper PMC6154466, “Design, Synthesis, Molecular Docking Analysis, and Carbonic Anhydrase IX Inhibitory Evaluations of Novel N-Substituted-β-D-Glucosamine Derivatives that Incorporate Benzenesulfonamides” (Molecules : A Journal of Synthetic Chemistry and Natural …, 2017)

Legend:
[1] = biological target: T1, Recombinant human carbonic anhydrase IX (Homo sapiens, UniProt Q16790); test: hCA IX inhibition, 4-nitrophenyl acetate (4-NPA) esterase assay; type: biochemical; settings: mean ± standard error
T1 construct: purchased Sino Biological Inc, Beijing, China
Description: Carbonic anhydrases are able to catalyze the conversion 4-nitrophenyl acetate (4-NPA) to 4-nitrophenol. […] One × Assay buffer is composed of 15 mmol/L 4-(2-hydroxyethyl)-1-piperazineethanesulfonic acid (HEPES) (pH = 7.4), 0.01% tetraethylene glycol monododecyl ether (BRIJ) and 100 mmol/L NaCl. […] Then, 18 μL of enzyme solution was transferred into 384-well assay plates in triplicate. Stock solutions of the inhibitor (10 mmol/L) were prepared using DMSO as solvent, and then diluted 1:3 with DMSO. […] The normalized data were then fit to a sigmoidal dose-response curve using GraphPad Prism 5.0 software, La Jolla, CA, USA to obtain the IC50. Final enzyme concentration was 5 ng/μL.

[2] = system: CA IX over intracellular CA II; parameters: method as in PMID 25254302; settings: cited from earlier work
[3] = system: CA IX over intracellular CA I; parameters: method as in PMID 25254302; settings: cited from earlier work

melting point [°C] | IC50 [1] [µM] | Compound | selectivity for CA IX over CA II [2] [fold] | selectivity for CA IX over CA I [3] [fold]
159.5 to 161.2 | 0.0218 ± 0.00318 | Cc1ccc(S(=O)(=O)NC2C(NC(=S)Nc3ccc(S(N)(=O)=O)cc3)OC(CO)C(O)C2O)cc1 [Compound 7a, N-[4-(Aminosulfonyl)phenyl]-N′-[2′-(4′-methylbenzenesulfonylamino)-2′-deoxy-β-D-glucopyranosyl]thiourea] |  | 
175.2 to 177.1 | 0.0219 ± 0.00037 | Cc1ccccc1S(=O)(=O)N[C@@H]1[C@@H](O)[C@H](O)[C@@H](CO)O[C@H]1NC(=S)Nc1ccc(S(N)(=O)=O)cc1 [Compound 7b, N-[4-(Aminosulfonyl)phenyl]-N′-[2′-(2′-methylbenzenesulfonylamino)-2′-deoxy-β-D-glucopyranosyl]thiourea] |  | 
165 to 166.3 | 0.0238 ± 0.00051 | COc1ccc(S(=O)(=O)N[C@@H]2[C@@H](O)[C@H](O)[C@@H](CO)O[C@H]2NC(=S)Nc2ccc(S(N)(=O)=O)cc2)cc1 [Compound 7c, N-[4-(Aminosulfonyl)phenyl]-N′-[2′-(4′-methoxybenzenesulfonylamino)-2′-deoxy-β-D-glucopyranosyl]thiourea] |  | 
178 to 179.6 | 0.0256 ± 0.00215 | NS(=O)(=O)c1ccc(NC(=S)N[C@@H]2O[C@H](CO)[C@@H](O)[C@H](O)[C@H]2NS(=O)(=O)c2ccc(F)cc2)cc1 [Compound 7d, N-[4-(Aminosulfonyl)phenyl]-N′-[2′-(4′-fluorobenzenesulfonylamino)-2′-deoxy-β-D-glucopyranosyl]thiourea] |  | 
167.2 to 168.8 | 0.0269 ± 0.00028 | NS(=O)(=O)c1ccc(NC(=S)N[C@@H]2O[C@H](CO)[C@@H](O)[C@H](O)[C@H]2NS(=O)(=O)c2ccc(Cl)cc2)cc1 [Compound 7g, N-[4-(Aminosulfonyl)phenyl]-N′-[2′-(4′-chlorobenzenesulfonylamino)-2′-deoxy-β-D-glucopyranosyl]thiourea] |  | 
174.1 to 176 | 0.0213 ± 0.00129 | NS(=O)(=O)c1ccc(NC(=S)N[C@@H]2O[C@H](CO)[C@@H](O)[C@H](O)[C@H]2NS(=O)(=O)c2ccc(Br)cc2)cc1 [Compound 7h, N-[4-(Aminosulfonyl)phenyl]-N′-[2′-(4′-bromobenzenesulfonylamino)-2′-deoxy-β-D-glucopyranosyl]thiourea] |  | 
172.9 to 174.7 | 0.0126 ± 0.00096 | NS(=O)(=O)c1ccc(NC(=S)N[C@@H]2O[C@H](CO)[C@@H](O)[C@H](O)[C@H]2NS(=O)(=O)c2cccc(Br)c2)cc1 [Compound 7i, N-[4-(Aminosulfonyl)phenyl]-N′-[2′-(3′-bromobenzenesulfonylamino)-2′-deoxy-β-D-glucopyranosyl]thiourea] |  | 
169.7 to 171.7 | 0.0156 ± 0.00044 | NS(=O)(=O)c1ccc(NC(=S)N[C@@H]2O[C@H](CO)[C@@H](O)[C@H](O)[C@H]2NS(=O)(=O)c2ccccc2[N+](=O)[O-])cc1 [Compound 7k, N-[4-(Aminosulfonyl)phenyl]-N′-[2′-(2′-nitrobenzenesulfonylamino)-2′-deoxy-β-D-glucopyranosyl]thiourea] |  | 
177.3 to 179.2 | 0.0189 ± 0.00033 | NS(=O)(=O)c1ccc(NC(=S)N[C@@H]2O[C@H](CO)[C@@H](O)[C@H](O)[C@H]2NS(=O)(=O)c2cccc([N+](=O)[O-])c2)cc1 [Compound 7l, N-[4-(Aminosulfonyl)phenyl]-N′-[2′-(3′-nitrobenzenesulfonylamino)-2′-deoxy-β-D-glucopyranosyl]thiourea] |  | 
164.8 to 166.2 | 0.0669 ± 0.00326 | CCS(=O)(=O)N[C@@H]1[C@@H](O)[C@H](O)[C@@H](CO)O[C@H]1NC(=S)Nc1ccc(S(N)(=O)=O)cc1 [Compound 7o, N-[4-(Aminosulfonyl)phenyl]-N′-(2′-ethylsulfonylamino-2′-deoxy-β-D-glucopyranosyl)thiourea] |  | 
172.8 to 174 | 0.0658 ± 8e-05 | NS(=O)(=O)c1ccc(NC(=S)N[C@@H]2O[C@H](CO)[C@@H](O)[C@H](O)[C@H]2NS(=O)(=O)c2cccs2)cc1 [Compound 7r, N-[4-(Aminosulfonyl)phenyl]-N′-[2′-(thiophene-2′-sulfonylamino)-2′-deoxy-β-D-glucopyranosyl]thiourea] |  | 

The next lines start with the molecule.

Compound | melting point [°C] | IC50 [1] [µM] | selectivity for CA IX over CA II [2] [fold] | selectivity for CA IX over CA I [3] [fold]
NS(=O)(=O)c1ccc(NC(=S)N[C@@H]2O[C@H](CO)[C@@H](O)[C@H](O)[C@H]2NS(=O)(=O)c2cc(F)cc(F)c2)cc1 [Compound 7e, N-[4-(Aminosulfonyl)phenyl]-N′-[2′-(3′,5′-difluorobenzenesulfonylamino)-2′-deoxy-β-D-glucopyranosyl]thiourea] | 164.4 to 165.2 | 0.0115 ± 0.00093 |  | 
NS(=O)(=O)c1ccc(NC(=S)NC2OC(CO)C(O)C(O)C2NS(=O)(=O)c2ccc(C(F)(F)F)cc2)cc1 [Compound 7f, N-[4-(Aminosulfonyl)phenyl]-N′-[2′-(4′-trifluoromethylbenzenesulfonylamino)-2′-deoxy-β-D-glucopyranosyl]thiourea] | 164 to 165.4 | 0.01 ± 0.00023 |  | 
NS(=O)(=O)c1ccc(NC(=S)N[C@@H]2O[C@H](CO)[C@@H](O)[C@H](O)[C@H]2NS(=O)(=O)c2ccc([N+](=O)[O-])cc2)cc1 [Compound 7j, N-[4-(Aminosulfonyl)phenyl]-N′-[2′-(4′-nitrobenzenesulfonylamino)-2′-deoxy-β-D-glucopyranosyl]thiourea] | 174.7 to 176 | 0.0254 ± 0.0038 |  | 
N#Cc1ccc(S(=O)(=O)N[C@@H]2[C@@H](O)[C@H](O)[C@@H](CO)O[C@H]2NC(=S)Nc2ccc(S(N)(=O)=O)cc2)cc1 [Compound 7m, N-[4-(Aminosulfonyl)phenyl]-N′-[2′-(4′-cyanobenzenesulfonylamino)-2′-deoxy-β-D-glucopyranosyl]thiourea] | 169 to 170.6 | 0.0219 ± 0.00049 |  | 
NS(=O)(=O)c1ccc(NC(=S)N[C@@H]2O[C@H](CO)[C@@H](O)[C@H](O)[C@H]2NS(=O)(=O)c2ccc3ccccc3c2)cc1 [Compound 7n, N-[4-(Aminosulfonyl)phenyl]-N′-[2′-(naphthalene-2′-sulfonylamino)-2′-deoxy-β-D-glucopyranosyl]thiourea] | 182.7 to 184.6 | 0.02478 ± 5e-05 |  | 
CCCS(=O)(=O)NC1C(NC(=S)Nc2ccc(S(N)(=O)=O)cc2)OC(CO)C(O)C1O [Compound 7p, N-[4-(Aminosulfonyl)phenyl]-N′-(2′-n-propylsulfonylamino-2′-deoxy-β-D-glucopyranosyl)thiourea] | 159.1 to 160.6 | 0.389 ± 0.0277 |  | 
CN(C)S(=O)(=O)N[C@@H]1[C@@H](O)[C@H](O)[C@@H](CO)O[C@H]1NC(=S)Nc1ccc(S(N)(=O)=O)cc1 [Compound 7q, N-[4-(Aminosulfonyl)phenyl]-N′-[2′-(N′,N′-dimethylsulfonylamino)-2′-deoxy-β-D-glucopyranosyl]thiourea] | 157.4 to 159.4 | 0.0721 ± 0.00615 |  | 
CC(=O)NC1C(NC(=S)Nc2ccc(S(N)(=O)=O)cc2)OC(COC(C)=O)C(OC(C)=O)C1OC(C)=O [Compound 9a, N-[4-(Aminosulfonyl)phenyl]-N′-(2′-acetylamino-3′,4′,6′-tri-O-acetyl-2′-deoxy-β-D-glucopyranosyl)thiourea] | 141.8 to 142.9 | 1.29 ± 0.141 |  | 
CC(=O)NC1C(NC(=S)Nc2ccc(S(N)(=O)=O)cc2)OC(CO)C(O)C1O [Compound 9b, N-[4-(Aminosulfonyl)phenyl]-N′-(2′-acetylamino-2′-deoxy-β-D-glucopyranosyl)thiourea] | 151.1 to 152.9 | 0.176 ± 0.00945 |  | 
NS(=O)(=O)OCCCCCNS(=O)(=O)[C@@H]1O[C@H](CO)[C@@H](O)[C@H](O)[C@H]1O [Compound A] |  |  | 3200 | 1200
